Measured values taken from patent US11911386B2, “Methods of treating B-cell proliferative disorder” (BeiGene Switzerland GmbH, priority 2022, dated 2024).
“And” between values parts separate entries of the source, which are not always exact repeats. Equal entries are not always repeated. Where two headings read alike, the source gives them in different places.

Key:
[1] = cited from earlier work
[2] = multiple doses of a moderate CYP3A inhibitor; cited from earlier work
[3] = cited from earlier work; remark: listed apart in the source
[4] = any grade, listed as Zanubrutinib
[5] = grade ≥3, listed as Zanubrutinib
[6] = leading to treatment discontinuation
[7] = coadministration with itraconazole

**Q.** What does the source list for `C=CC(=O)N1CCC([C@@H]2CCNc3c(C(N)=O)c(-c4ccc(Oc5ccccc5)cc4)nn32)CC1` [zanubrutinib, (S)-7-(1-acryloylpiperidin-4-yl)-2-(4-phenoxyphenyl)-4,5,6,7-tetrahydropyrazolo[1,5-a]pyrimidine-3-carboxamide]?
**A.** Treatment discontinuation due to adverse events (ITT): 16.2%; Anemia AESI (any grade): 50 (15.4) n (%); Anemia TEAE (any grade): 49 (15.1) n (%); Arthralgia TEAE (any grade): 47 (14.5) n (%); Atrial fibrillation TEAE (any grade): 15 (4.6) n (%); Atrial fibrillation and flutter AESI (any grade): 5.2 n (%); COVID-19 TEAE (any grade): 23.1 n (%); Contusion TEAE (any grade): 44 (13.6) n (%); Cough TEAE (any grade): 38 (11.7) n (%); Diarrhea TEAE (any grade): 16.0 n (%); Fatigue TEAE (any grade): 31 (9.6) n (%); Hemorrhage AESI (any grade): 137 (42.3) n (%); Hypertension AESI (any grade): 23.5 n (%); Hypertension TEAE (any grade): 21.9 n (%); Infections AESI (any grade): 71.3 n (%); Major hemorrhage AESI (any grade): 12 (3.7) n (%); Muscle spasms TEAE (any grade): 10 (3.1) n (%); Neutropenia AESI (any grade): 29.3 n (%); Neutropenia TEAE (any grade): 22.8 n (%); Opportunistic infection AESI (any grade): 7 (2.2%) n (%); Pneumonia TEAE (any grade): 34 (10.5) n (%); Pyrexia TEAE (any grade): 27 (8.3) n (%); Rash TEAE (any grade): 33 (10.2) n (%); Secondary primary malignancies AESI (any grade): 40 (12.3) n (%); Skin cancers AESI (any grade): 21 (6.5) n (%); Thrombocytopenia AESI (any grade): 42 (13.0) n (%); Tumor lysis syndrome AESI (any grade): 1 (0.3) n (%); Upper respiratory tract infection TEAE (any grade): 21.0 n (%); ≥1 AESI (any grade): 294 (90.7) n (%); ≥1 TEAE (any grade): 318 (98.1) n (%); Atrial fibrillation and flutter AESI [4]: 17 (5.2) n (%); COVID-19 TEAE [4]: 75 (23.1) n (%); Diarrhea TEAE [4]: 52 (16.0) n (%); Hypertension AESI [4]: 76 (23.5) n (%); Hypertension TEAE [4]: 71 (21.9) n (%); Infections AESI [4]: 231 (71.3) n (%); Neutropenia AESI [4]: 95 (29.3) n (%); Neutropenia TEAE [4]: 74 (22.8) n (%); Opportunistic infection AESI [4]: 7 (2.2) n (%); Upper respiratory tract infection TEAE [4]: 68 (21.0) n (%); Acute coronary syndrome (cardiac AE): 1 (0.3); Acute myocardial infarction (cardiac AE): 1 (0.3); Angina pectoris (cardiac AE): 4 (1.2); Aortic valve incompetence (cardiac AE): 0; Aortic valve stenosis (cardiac AE): 1 (0.3); Arrhythmia (cardiac AE): 1 (0.3); Arrhythmia supraventricular (cardiac AE): 3 (0.9); Arteriosclerosis coronary artery (cardiac AE): 1 (0.3); Atrial fibrillation (cardiac AE): 15 (4.6); Atrial flutter (cardiac AE): 2 (0.6); Atrial tachycardia (cardiac AE): 0; Atrioventricular block (cardiac AE): 0; Atrioventricular block first degree (cardiac AE): 5 (1.5); Bradyarrhythmia (cardiac AE): 1 (0.3); Bradycardia (cardiac AE): 0; Bundle branch block left (cardiac AE): 3 (0.9); Bundle branch block right (cardiac AE): 2 (0.6); Cardiac arrest (cardiac AE): 0; Cardiac discomfort (cardiac AE): 0; Cardiac disorder (cardiac AE): 0; Cardiac failure (cardiac AE): 5 (1.5); Cardiac failure acute (cardiac AE): 0; Cardiac failure chronic (cardiac AE): 0; Cardiac failure congestive (cardiac AE): 1 (0.3); Congestive cardiomyopathy (cardiac AE): 0; Coronary artery disease (cardiac AE): 2 (0.6); Coronary artery insufficiency (cardiac AE): 1 (0.3); Defect conduction intraventricular (cardiac AE): 1 (0.3); Dilatation atrial (cardiac AE): 1 (0.3); Extrasystoles (cardiac AE): 1 (0.3); Left atrial hypertrophy (cardiac AE): 1 (0.3); Left ventricular dysfunction (cardiac AE): 1 (0.3); Left ventricular failure (cardiac AE): 1 (0.3); Mitral valve incompetence (cardiac AE): 1 (0.3); Myocardial fibrosis (cardiac AE): 1 (0.3); Myocardial infarction (cardiac AE): 1 (0.3); Myocardial ischemia (cardiac AE): 3 (0.9); Palpitations (cardiac AE): 9 (2.8); Pericardial effusion (cardiac AE): 1 (0.3); Sinoatrial block (cardiac AE): 1 (0.3); Sinus arrhythmia (cardiac AE): 1 (0.3); Sinus bradycardia (cardiac AE): 5 (1.5); Sinus node dysfunction (cardiac AE): 0; Sinus tachycardia (cardiac AE): 4 (1.2); Supraventricular extrasystoles (cardiac AE): 4 (1.2); Supraventricular tachycardia (cardiac AE): 2 (0.6); Tachycardia (cardiac AE): 1 (0.3); Ventricular arrhythmia (cardiac AE): 2 (0.6); Ventricular extrasystoles (cardiac AE): 3 (0.9); Ventricular fibrillation (cardiac AE): 0; Ventricular hypokinesia (cardiac AE): 1 (0.3); Anemia AESI (grade ≥3): 7 (2.2) n (%); Atrial fibrillation and flutter AESI (grade ≥3): 2.5 n (%); Hemorrhage AESI (grade ≥3): 11 (3.4) n (%); Hypertension AESI (grade ≥3): 15.1 n (%); Infections AESI (grade ≥3): 26.5 n (%); Major hemorrhage AESI (grade ≥3): 11 (3.4) n (%); Neutropenia AESI (grade ≥3): 68 (21.0) n (%); Opportunistic infection AESI (grade ≥3): 5 (1.5) n (%); Secondary primary malignancies AESI (grade ≥3): 22 (6.8) n (%); Skin cancers AESI (grade ≥3): 7 (2.2) n (%); Thrombocytopenia AESI (grade ≥3): 11 (3.4) n (%); Tumor lysis syndrome AESI (grade ≥3): 1 (0.3) n (%); ≥1 AESI (grade ≥3): 186 (57.4) n (%); Atrial fibrillation and flutter AESI [5]: 8 (2.5) n (%); Hypertension AESI [5]: 49 (15.1) n (%); Infections AESI [5]: 86 (26.5) n (%); Anemia (grade ≥3 TEAE): 7 (2.2); Atrial fibrillation (grade ≥3 TEAE): 6 (1.9); Blood pressure increased (grade ≥3 TEAE): 4 (1.2); COVID-19 (grade ≥3 TEAE): 22 (6.8); COVID-19 pneumonia (grade ≥3 TEAE): 23 (7.1); Neutrophil count decreased (grade ≥3 TEAE): 17 (5.2); Pneumonia (grade ≥3 TEAE): 19 (5.9); Syncope (grade ≥3 TEAE): 9 (2.8); Thrombocytopenia (grade ≥3 TEAE): 9 (2.8); AEs leading to dose reduction (human, in vivo): 40 (12.3); Bronchopulmonary aspergillosis (human, in vivo): 2 (0.6); COVID-19 TEAE Grade 3 or higher (human, in vivo): 40 (12.3) n (%); Fungal abscess central nervous system (human, in vivo): 1 (0.3); Herpes ophthalmic (human, in vivo): 0; Ophthalmic herpes zoster (human, in vivo): 0; Osteomyelitis fungal (human, in vivo): 0; Pneumonia fungal (human, in vivo): 2 (0.6); Pneumonia legionella (human, in vivo): 0; Pulmonary tuberculosis (human, in vivo): 0; AEs leading to dose interruption (in vivo): 162 (50.0); AEs leading to treatment discontinuation (in vivo): 50 (15.4); Deaths due to cardiac events (in vivo): no patient receiving zanubrutinib died due to a cardiac disorder AE; Grade ≥3 TEAE (in vivo): 218 (67.3); Serious AEs (in vivo): 136 (42.0); Atrial fibrillation [6]: 0; Cardiac arrest [6]: 0; Cardiac failure [6]: 0; Cardiac failure acute [6]: 0; Congestive cardiomyopathy [6]: 0; Myocardial infarction [6]: 0; Palpitations [6]: 0; Ventricular extrasystoles [6]: 1 (0.3); Ventricular fibrillation [6]: 0; Pneumocystis jirovecii pneumonia (opportunistic infection AESI): 1 (0.3); Pneumonia cryptococcal (opportunistic infection AESI): 1 (0.3); Median Tmax ([1]; oral administration): 2 h; Mean terminal elimination half-life (t1/2) ([1]; patients with B-cell malignancies): 2 to 4 h; Mean t1/2 ([1]; previous clinical DDI study in healthy volunteers): 6.8 h; Increase in zanubrutinib Cmax and AUC [2]: 2- to 3 fold and 2 to 3 fold; Increase in zanubrutinib AUC0-∞ [3, 7]: 3.8 fold; Increase in zanubrutinib Cmax [3, 7]: 2.6 fold; Decrease in zanubrutinib AUC0-∞ ([3]; coadministration with rifampin): 13.5 fold; Decrease in zanubrutinib Cmax ([3]; coadministration with rifampin): 12.6 fold; Exposure change ([3]; coadministration with rifampin): 13 fold
